Consider six molecules from ChEMBL document CHEMBL1128989, “-Methanesulfonyl-L-valine as a novel, unnatural amino acid surrogate for P2 in the design of HIV protease inhibitors” (Bioorg Med Chem Lett, 1996).

Assay [1] concerns Human immunodeficiency virus 1. Briefly: Antiviral activity against PBMC infected with Human immunodeficiency virus type 1 NL4-3 isolate. In kind it is functional.
Assay [2] has as its target Human immunodeficiency virus type 1 protease (Human immunodeficiency virus 1, UniProt Q72874). The assay can be described thus: Inhibitory activity against P2 site in HIV protease.
Assay [3] is described as follows: Ratio of IC50/Ki was determined.

pKi: −log10 of the molar value.

As for `CC(C)(C)NC(=O)[C@@H]1C[C@@H]2CCCC[C@@H]2CN1C[C@@H](O)[C@H](Cc1ccccc1)NC(=O)[C@@H](NC(=O)c1ccc2ccccc2n1)C(C)(C)S(C)(=O)=O`, the “CIC IC50” value in assay [1] is 4.9 nM. Moreover, in assay [2], the pKi is 9.76. Also, in assay [3], the Ratio was 28.

Consider `CC(C)(C)NC(=O)[C@@H]1C[C@@H]2CCCC[C@@H]2CN1C[C@@H](O)[C@H](Cc1ccccc1)NC(=O)[C@@H](NC(=O)OCc1ccccc1)C(C)(C)S(C)(=O)=O`, for which, in assay [1], the “CIC IC50” value came to 11 nM. This molecule also showed a pKi in assay [2] of 9.79. Moreover, the Ratio in assay [3] amounted to 68.

On to `CSC(C)(C)[C@H](NC(=O)c1ccc2ccccc2n1)C(=O)N[C@@H](Cc1ccccc1)[C@H](O)CN1C[C@H]2CCCC[C@H]2C[C@H]1C(=O)NC(C)(C)C`, for which, in assay [1], the “CIC IC50” value is 27 nM. The molecule also gave a pKi in assay [2] of 8.59. The Ratio in assay [3] came out at 10.

As for `CC(C)(C)NC(=O)[C@@H]1C[C@@H]2CCCC[C@@H]2CN1C[C@@H](O)[C@H](Cc1ccccc1)NC(=O)[C@H](CS(C)(=O)=O)NC(=O)c1ccc2ccccc2n1`, in assay [1], the “CIC IC50” value stood at 22 nM. The pKi in assay [2] was 9.95. The Ratio in assay [3] is 195.

As to `CC(C)[C@H](NC(=O)c1ccc2ccccc2n1)C(=O)N[C@@H](Cc1ccccc1)[C@H](O)CN1C[C@H]2CCCC[C@H]2C[C@H]1C(=O)NC(C)(C)C`, in assay [1], the “CIC IC50” value is 54 nM. This molecule had a pKi in assay [2] of 9.26. In addition, in assay [3], the Ratio stood at 98.

Take `CC(C)(C)NC(=O)[C@@H]1C[C@@H]2CCCC[C@@H]2CN1C[C@@H](O)[C@H](Cc1ccccc1)NC(=O)[C@H](CC(N)=O)NC(=O)c1ccc2ccccc2n1`: the “CIC IC50” value in assay [1] came to 23 nM.

One may read the pKi as −log10 of the Ki, conventionally taken in molar units. A high value points to a small Ki.
